Experiments:
Test in all cases: Test C greenhouse herbicide test, pre- and postemergence
Assay type in all cases: in vivo
[1] = test system: pigweed (Amaranthus retroflexus)
Procedure, shortened: (§1)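 Seeds sown in loam–sand blend treated preemergence; plants in peat-based medium sprayed postemergence at 2–18 cm (1- to 4-leaf stage); chemicals in non-phytotoxic solvent with surfactant. Greenhouse 13–15 d, then visual rating versus controls on 0–100 scale (0 no effect, 100 complete control).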

[2] = test system: johnsongrass (Sorghum halepense)
Procedure, shortened: as §1

[3] = test system: oilseed rape (Brassica napus)
Procedure, shortened: as §1

[4] = test system: galium (catchweed bedstraw, Galium aparine)
Procedure, shortened: as §1

[5] = test system: nutsedge, yellow (yellow nutsedge, Cyperus esculentus)
Procedure, shortened: as §1

[6] = test system: corn (Zea mays)
Procedure, shortened: as §1

[7] = test system: foxtail, giant (giant foxtail, Setaria faberii)
Procedure, shortened: as §1

[8] = test system: velvetleaf (Abutilon theophrasti)
Procedure, shortened: as §1

[9] = test system: morningglory (Ipomoea coccinea)
Procedure, shortened: as §1

[10] = test system: crabgrass, large (large crabgrass, Digitaria sanguinalis)
Procedure, shortened: as §1

[11] = test system: ragweed (common ragweed, Ambrosia elatior)
Procedure, shortened: as §1

[12] = test system: waterhemp (common waterhemp, Amaranthus rudis)
Procedure, shortened: as §1

[13] = test system: blackgrass (Alopecurus myosuroides)
Procedure, shortened: as §1

[14] = test system: ryegrass, Italian (Italian ryegrass, Lolium multiflorum)
Procedure, shortened: as §1

[15] = test system: barnyardgrass (Echinochloa crus-galli)
Procedure, shortened: as §1

[16] = test system: lambsquarters (Chenopodium album)
Procedure, shortened: as §1

[17] = Postemergence, 31 g ai/ha, 0 to 100 scale (0 no effect, 100 complete control)
[18] = Postemergence, 125 g ai/ha, scale 0 to 100, 0 is no effect, 100 is complete control
[19] = Postemergence, 250 g ai/ha, scale 0 to 100, 0 no effect, 100 complete control, 13 to 15 d
[20] = postemergence, 62 g ai/ha, scale 0 to 100, 0 no effect, 100 complete control

## COc1nn(C)c(=O)c(-c2c(C)sc3ccccc23)c1O [Compound 33]
[1]; [17]
  Pigweed plant response rating: 30
[1]; [18]
  Plant response rating, Pigweed: 65
[1]; [19]
  Plant response rating, Pigweed: 80
[1]; [20]
  Pigweed plant response rating: 50
[2]; [17]
  Johnsongrass plant response rating: 0
[2]; [18]
  Plant response rating, Johnsongrass: 5
[2]; [19]
  Plant response rating, Johnsongrass: 40
[2]; [20]
  Johnsongrass plant response rating: 5
[3]; [17]
  Oilseed Rape plant response rating: 40
[3]; [18]
  Plant response rating, Oilseed Rape: 30
[3]; [19]
  Plant response rating, Oilseed Rape: 50
[3]; [20]
  Oilseed Rape plant response rating: 55
[4]; [17]
  Galium plant response rating: 90
[4]; [18]
  Plant response rating, Galium: 95
[4]; [19]
  Plant response rating, Galium: 95
[4]; [20]
  Galium plant response rating: 90
[5]; [17]
  Nutsedge, Yellow plant response rating: 5
[5]; [18]
  Plant response rating, Nutsedge, Yellow: 45
[5]; [19]
  Plant response rating, Nutsedge, Yellow: 65
[5]; [20]
  Nutsedge, Yellow plant response rating: 15
[6]; [17]
  Corn plant response rating: 0
[6]; [18]
  Plant response rating, Corn: 5
[6]; [19]
  Plant response rating, Corn: 20
[6]; [20]
  Corn plant response rating: 5
[7]; [17]
  Foxtail, Giant plant response rating: 20
[7]; [18]
  Plant response rating, Foxtail, Giant: 60
[7]; [19]
  Plant response rating, Foxtail, Giant: 70
[7]; [20]
  Foxtail, Giant plant response rating: 40
[8]; [17]
  Velvetleaf plant response rating: 10
[8]; [18]
  Plant response rating, Velvetleaf: 75
[8]; [19]
  Plant response rating, Velvetleaf: 85
[8]; [20]
  Velvetleaf plant response rating: 60
[9]; [17]
  Morningglory plant response rating: 85
[9]; [18]
  Plant response rating, Morningglory: 95
[9]; [19]
  Plant response rating, Morningglory: 98
[9]; [20]
  Morningglory plant response rating: 95
[10]; [17]
  Crabgrass, Large plant response rating: 10
[10]; [18]
  Plant response rating, Crabgrass, Large: 20
[10]; [19]
  Plant response rating, Crabgrass, Large: 25
[10]; [20]
  Crabgrass, Large plant response rating: 20
[11]; [17]
  Ragweed plant response rating: 85
[11]; [18]
  Plant response rating, Ragweed: 90
[11]; [19]
  Plant response rating, Ragweed: 98
[11]; [20]
  Ragweed plant response rating: 95
[12]; [17]
  Waterhemp plant response rating: 25
[12]; [18]
  Plant response rating, Waterhemp: 65
[12]; [19]
  Plant response rating, Waterhemp: 75
[12]; [20]
  Waterhemp plant response rating: 30
[13]; [17]
  Blackgrass plant response rating: 0
[13]; [18]
  Plant response rating, Blackgrass: 5
[13]; [19]
  Plant response rating, Blackgrass: 10
[13]; [20]
  Blackgrass plant response rating: 0
[14]; [17]
  Ryegrass, Italian plant response rating: 30
[14]; [18]
  Plant response rating, Ryegrass, Italian: 70
[14]; [19]
  Plant response rating, Ryegrass, Italian: 75
[14]; [20]
  Ryegrass, Italian plant response rating: 45
[15]; [17]
  Barnyardgrass plant response rating: 25
[15]; [18]
  Plant response rating, Barnyardgrass: 50
[15]; [19]
  Plant response rating, Barnyardgrass: 80
[15]; [20]
  Barnyardgrass plant response rating: 25
[16]; [17]
  Lambsquarters plant response rating: 90
[16]; [18]
  Plant response rating, Lambsquarters: 98
[16]; [19]
  Plant response rating, Lambsquarters: 100
[16]; [20]
  Lambsquarters plant response rating: 95

Source: patent publication US10597388B2, “Pyridazinone herbicides” (FMC CORPORATION, priority 2014, dated 2020)
